Data: patent US12324812B2, “Glucopyranosyl derivatives and their uses” (SUNSHINE LAKE PHARMA CO., LTD., priority 2019, dated 2025)

Experiments:
human SGLT1 = human SGLT1 (Homo sapiens (Human), UniProt P13866); test: Test of inhibitory activity on SGLT1 (14C-AMG uptake in CHO cells expressing human SGLT1); assay type: cell-based; conditions: CHO cells expressing human SGLT1, 0.5 μM 14C-AMG, 37° C. 1 hour
Experimental: 1. Test of Inhibitory Activity on SGLT1
the following methods can be used to determine the inhibitory activity of the compounds described in the invention on SGLT-1.
mock-transfected FIP-in CHO cells (3×10^4) and CHO cells expressing human SGLT1 gene were seeded into 96-well plates respectively. The cells were incubated for 12 hours. Each well of the 96-well plate was washed with 150 μL of sodium-free buffer once. To each well was added 50 μL of sodium-containing buffer containing test compounds of different concentrations and 0.5 μM […]. The incubation mixture was incubated at 37° C. for 1 hour. To each well was added 150 μL of precooled sodium-free buffer to terminate the reaction. The cell pellet was washed with sodium-free buffer three times and the residual liquid in well was removed. To each well was added 20 μL of precooled 100 mM NaOH. The 96-well plate was vibrated at 900 rpm for 5 minutes. Scintillation fluid (80 μL) was added to each well which was then vibrated at 600 rpm for 5 minutes. The amount of 14C-AMG was quantitatively detected using liquid scintillation.

SD rats = test: Oral glucose tolerance test in SD rats; assay type: in vivo, rat; conditions: male SD rats, 0.1 mg/kg once by gavage, glucose 4.0 g/kg; decline rate of AUCGlu 0-60 min after sugar loading
Experimental: 2. Oral Glucose Tolerance Test and UrinaR^y Glucose Excretion Test
The following methods were used to evaluate the effects of the compounds of the invention on improving oral glucose tolerance and glycosuria excretion.
Test method: The weight and the fasting blood glucose levels of male SD rats were measured after an overnight 15-hour fast. The rats were grouped by their weights and fasting plasma glucose levels. Each test group was administered with the corresponding test compound once by gavage at a dose of 0.1 mg/Kg, and the blank control group was administered solvent. After 30 minutes, the blood glucose level (i.e. zeropoint blood glucose) of each group was measured, and then each group was immediately administered glucose (4.0 g/kg) once by gavage. The blood was drawn from the tail vein at 15, 30 and 60 minutes after glucose administration and the blood glucose concentrations of SD rats were measured continuously on blood-glucose meter. The decline rate of the area under the blood sugar curve within 60 minutes (AUCGlu 0-60 min) after sugar loading was calculated.
After blood glucose level at 60 min time point was measured, each group was placed in a metabolism cage, and the urine was collected during 1.5 hours to 24 hours and 24 hours to 48 hours after drug administration with the metabolism cage as the unit. The urine volume of each metabolism cage at each point was recorded. The urine was collected and centrifuged to obtain the supernatant. The […] had free access to food and water during the urine collection. The urine glucose concentration of SD rats at each time point was determined on automatic biochemical analyzer.

Sequence of human SGLT1 (P13866 whole entry): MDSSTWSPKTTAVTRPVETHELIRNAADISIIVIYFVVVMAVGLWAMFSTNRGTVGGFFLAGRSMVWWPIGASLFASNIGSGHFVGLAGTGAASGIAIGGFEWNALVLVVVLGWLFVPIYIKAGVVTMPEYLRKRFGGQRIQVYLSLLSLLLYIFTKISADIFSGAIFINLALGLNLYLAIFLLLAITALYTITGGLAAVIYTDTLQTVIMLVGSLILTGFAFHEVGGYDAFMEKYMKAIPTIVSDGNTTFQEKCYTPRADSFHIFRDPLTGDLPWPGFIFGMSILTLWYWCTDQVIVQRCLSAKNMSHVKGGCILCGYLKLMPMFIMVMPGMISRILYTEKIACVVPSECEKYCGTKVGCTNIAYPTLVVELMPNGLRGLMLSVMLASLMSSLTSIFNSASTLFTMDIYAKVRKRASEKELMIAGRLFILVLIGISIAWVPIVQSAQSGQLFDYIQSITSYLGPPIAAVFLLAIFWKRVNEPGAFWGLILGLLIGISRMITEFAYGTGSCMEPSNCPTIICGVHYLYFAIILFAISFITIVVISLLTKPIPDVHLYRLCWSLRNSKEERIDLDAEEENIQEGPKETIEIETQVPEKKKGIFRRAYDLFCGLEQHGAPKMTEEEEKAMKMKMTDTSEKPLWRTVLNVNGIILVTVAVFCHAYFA

Row | Compound | IC50 (human SGLT1) [nM] | hypoglycemic rate (SD rats) [%]
1 | Cc1ccc([C@]23OC[C@](CO)(O2)[C@@H](O)[C@H](O)[C@H]3O)cc1Cc1ccc(CCCC(=O)NC2(C(=O)NCCN(C)C)CCCCC2)cc1 [Example 4, N-(2-dimethylaminoethyl)-1-[4-[4-[[2-methyl-5-[(1S, 2S, 3S, 4R, 5S)-2,3,4,-trihydroxy-1-(hydroxymethyl)-6,8-dioxabicyclo [3.2.1]octane-5-yl]phenyl]methyl]phenyl]butyrylamino] cyclohexyl formamide] | 1.18 | 26.25
2 | CC[C@H]1O[C@@H](c2ccc(C)c(Cc3ccc(CCCC(=O)NC4(C(=O)NCCN(C)C)CCCCC4)cc3)c2)[C@H](O)[C@@H](O)[C@@H]1O [Example 1, N-(2-dimethylaminoethyl)-1-[4-[4-[[5-[(2S, 3R, 4S, 5S, 6R)-6-ethyl-3,4,5-trihydroxy-tetrahydropyran-2-yl]-2-methyl-phenyl]methyl]phenyl]butyrylamino] cyclohexyl formamide] | 0.22 | 31.28
3 | CCC[C@H]1O[C@@H](c2ccc(C)c(Cc3ccc(CCCC(=O)NC4(C(=O)NCCN(C)C)CCCCC4)cc3)c2)[C@H](O)[C@@H](O)[C@@H]1O [Example 3, N-(2-dimethylaminoethyl)-1-[4-[4-[[2-methyl-5-[(2S, 3R, 4S, 5S, 6R)-3,4,5-trihydroxy-6-propyl-tetrahydropyran-2-yl]phenyl]methyl]phenyl]butyrylamino] cyclohexylformamide] | 0.25 | 29.42
